What is called melting point is the temperature of the solid-liquid transition. For orientation: IC50 means the concentration at which inhibition is half-maximal.

Data set [1] addresses T1, human metastin receptor hOT7T175 (Homo sapiens, UniProt Q969F8, L364H).
T1 construct: encoding the entire length of human metastin receptor hOT7T175; expressed in transfected cells; host or cells: CHO/dhFr- cells (ATCC #CRL-9096) stably transfected with pAKKO-hOT7T175; clone h175-16 was used as whole cells for FLIPR
The data set can be described thus: binding inhibiting activity: 125I-metastin (40-54) binding to cell membrane fraction of h175 KB34 cells. Conditions: room temperature 60 minutes, read-out: binding inhibiting activity, represented by the IC50 value. The essentials: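 The assay buffer (pH 7.4 Tris with magnesium acetate, EGTA and a protease-inhibitor cocktail) was used either plain or supplemented with 1 mg/ml BSA. The radioligand was 125I-labelled human metastin (40-54). The receptor source was a 250-fold diluted membrane fraction of the stable CHO/dhfr− line h175 KB34.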

T1 sequence (Q969F8 whole entry L364H): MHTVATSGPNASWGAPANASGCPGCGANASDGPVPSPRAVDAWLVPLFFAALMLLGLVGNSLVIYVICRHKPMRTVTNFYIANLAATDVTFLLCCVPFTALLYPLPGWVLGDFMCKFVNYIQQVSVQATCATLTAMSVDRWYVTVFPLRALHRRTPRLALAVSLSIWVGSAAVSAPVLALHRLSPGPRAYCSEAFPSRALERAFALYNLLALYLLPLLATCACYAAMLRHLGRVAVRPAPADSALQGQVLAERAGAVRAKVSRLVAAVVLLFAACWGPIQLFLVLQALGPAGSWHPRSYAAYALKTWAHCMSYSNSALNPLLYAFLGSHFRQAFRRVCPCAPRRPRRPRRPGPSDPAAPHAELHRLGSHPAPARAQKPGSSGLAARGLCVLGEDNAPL

Consider `CN(C)[C@H]1CCCC[C@H]1C(=O)Nc1cccc(-c2cc(-c3ccc(F)cc3O)nc(NC(=O)c3ccco3)c2C#N)c1.Cl` [Example 287, N-{3-cyano-4-[3-({[(1R,2S)-2-(dimethylamino)cyclohexyl]carbonyl}amino)phenyl]-6-(4-fluoro-2-hydroxyphenyl)pyridin-2-yl}-2-furamide hydrochloride], for which the melting point lay in the range of 217 to 218 °C. Moreover, the IC50 in data set [1] was no more than 10 µM.
The matching figures for `Cl.N#Cc1c(-c2cccc(NC(=O)Cn3ccnc3)c2)cc(-c2ccc(Cl)cc2O)nc1NC(=O)c1ccco1` [Example 239, N-(6-(4-chloro-2-hydroxyphenyl)-3-cyano-4-{3-[(1H-imidazole-1-ylacetyl)amino]phenyl}pyridin-2-yl)-2-furamide hydrochloride]: 188 to 194 °C and no more than 10 µM.
Molecule `CC(C)C(N)CC(=O)Nc1cccc(-c2cc(-c3ccc(F)cc3O)nc(NC(=O)c3ccco3)c2C#N)c1.Cl` (stereo not drawn) [Example 266, N-[4-{3-[(3-amino-4-methylpentanoyl)amino]phenyl}-3-cyano-6-(4-fluoro-2-hydroxyphenyl)pyridin-2-yl]-2-furamide hydrochloride] yielded a melting point of 214 to 217 °C. In data set [1], the IC50 was no more than 10 µM.
The matching figures for `Cl.N#Cc1c(-c2cccc(NC(=O)[C@H]3CCCN3)c2)cc(-c2ccc(F)cc2O)nc1NC(=O)c1ccno1` [Example 293, N-(3-{3-cyano-6-(4-fluoro-2-hydroxyphenyl)-2-[(isoxazol-5-ylcarbonyl)amino]pyridin-4-yl}phenyl)-D-prolinamide hydrochloride]: ≥ 250 °C (dec.) and no more than 10 µM.
The matching figures for `CC(N)CC(=O)Nc1cccc(-c2cc(-c3ccc(Cl)cc3O)nc(NC(=O)c3ccco3)c2C#N)c1.Cl` (stereo not drawn) [Example 238, N-[4-{3-[(3-aminobutanoyl)amino]phenyl}-6-(4-chloro-2-hydroxyphenyl)-3-cyanopyridin-2-yl]-2-furamide hydrochloride]: 206 to 214 °C and no more than 10 µM.
On to `CCNC(C)CC(=O)Nc1cccc(-c2cc(-c3ccc(F)cc3O)nc(NC(=O)c3ccco3)c2C#N)c1.Cl` (stereo not drawn) [Example 320, N-[3-cyano-4-(3-{[3-(ethylamino)butanoyl]amino}phenyl)-6-(4-fluoro-2-hydroxyphenyl)pyridin-2-yl]-2-furamide hydrochloride], for which the melting point was in the range of 249 to 255 °C. In addition, in data set [1], the IC50 was no more than 10 µM.
The matching figures for `Cl.N#Cc1c(-c2cccc(NC(=O)[C@H]3CCCN3)c2)cc(-c2ccc(F)cc2O)nc1NC(=O)c1nccs1` [Example 292, N-(3-{3-cyano-6-(4-fluoro-2-hydroxyphenyl)-2-[(1,3-thiazol-2-ylcarbonyl)amino]pyridin-4-yl}phenyl)-D-prolinamide hydrochloride]: 241 to 244 °C and no more than 10 µM.
The corresponding values for `COc1c(C(=O)NCCN)cccc1-c1cc(-c2ccccc2O)nc(NC(=O)c2ccco2)c1C#N.Cl` [Example 273, N-[4-(3-{[(2-aminoethyl)amino]carbonyl}-2-methoxyphenyl)-3-cyano-6-(2-hydroxyphenyl)pyridin-2-yl]-2-furamide hydrochloride] are 182 to 188 °C and no more than 10 µM.
The matching figures for `CC(=O)NCCNc1cccc(-c2cc(-c3ccc(F)cc3O)nc(NC(=O)c3ccco3)c2C#N)c1` [Example 307, N-[4-(3-{[2-(acetylamino)ethyl]amino}phenyl)-3-cyano-6-(4-fluoro-2-hydroxyphenyl)pyridin-2-yl]-2-furamide]: 158 to 160 °C and no more than 10 µM.
The molecule `COc1ccccc1C(=O)Nc1nc(-c2ccc(F)cc2O)cc(-c2cccc(C(=O)NCC(C)(C)CN)c2)c1C#N.Cl` [Example 246, N-[4-(3-{[(3-amino-2,2-dimethylpropyl)amino]carbonyl}phenyl)-3-cyano-6-(4-fluoro-2-hydroxyphenyl)pyridin-2-yl]-2-methoxybenzamide hydrochloride] displayed a melting point of 244 to 246 °C. Besides, the IC50 in data set [1] was no more than 10 µM.
The corresponding values for `Cl.N#Cc1c(-c2cccc(NC(=O)C(N)c3ccccc3)c2)cc(-c2ccc(F)cc2O)nc1NC(=O)c1ccco1` (stereo not drawn) [Example 258, N-[4-(3-{[amino(phenyl)acetyl]amino}phenyl)-3-cyano-6-(4-fluoro-2-hydroxyphenyl)pyridin-2-yl]-2-furamide hydrochloride] are 224 to 225 °C and no more than 10 µM.
`CCN(CC)[C@@H](COC)C(=O)Nc1cccc(-c2cc(-c3ccc(F)cc3O)nc(NC(=O)c3ccco3)c2C#N)c1.Cl` [Example 306, N-[3-cyano-4-{3-[(N,N-diethyl-O-methyl-L-seryl)amino]phenyl}-6-(4-fluoro-2-hydroxyphenyl)pyridin-2-yl]-2-furamide hydrochloride] came in with a melting point of 192 to 196 °C. Further, in data set [1], the half-maximal inhibitory concentration (IC50) was no more than 10 µM.
The matching figures for `Cl.N#Cc1c(-c2cccc(C(=O)NC3CCNC3)c2)cc(-c2ccc(F)cc2O)nc1NC(=O)c1cccs1` (stereo not drawn) [Example 79, N-(3-cyano-6-(4-fluoro-2-hydroxyphenyl)-4-{3-[(pyrrolidine-3-ylamino)carbonyl]phenyl}pyridin-2-yl)thiophene-2-carboxamide hydrochloride]: 240 to 241 °C and no more than 10 µM.
`Cl.N#Cc1c(-c2cccc(C(=O)NCCCn3ccnc3)c2)cc(-c2ccc(F)cc2O)nc1NC(=O)c1cccs1` [Example 78, N-{3-cyano-6-(4-fluoro-2-hydroxyphenyl)-4-[3-({[3-(1H-imidazole-1-yl)propyl]amino}carbonyl)phenyl]pyridin-2-yl}thiophene-2-carboxamide hydrochloride] came in with a melting point of 195 to 196 °C. Also, in data set [1], the IC50 is no more than 10 µM.
The matching figures for `Cl.N#Cc1c(-c2cccc(NC(=O)CN)c2)cc(-c2ccc(F)cc2O)nc1NC(=O)c1ccco1` [Example 329, N-{3-cyano-6-(4-fluoro-2-hydroxyphenyl)-4-[3-(glycylamino)phenyl]pyridin-2-yl}-2-furamide hydrochloride]: 229 to 236 °C and no more than 10 µM.
With `Cl.N#Cc1c(-c2cccc(N3CCCNCC3)c2)cc(-c2ccc(F)cc2O)nc1NC(=O)c1ccco1` [Example 326, N-[3-cyano-4-[3-(1,4-diazepan-1-yl)phenyl]-6-(4-fluoro-2-hydroxyphenyl)pyridin-2-yl]-2-furamide hydrochloride], the melting point is 254 to 259 °C. Besides, the IC50 in data set [1] is no more than 10 µM.
On to `Cl.N#Cc1c(-c2cccc(NC(=O)[C@H]3CCCN3)c2)cc(-c2ccc(F)cc2O)nc1NC(=O)c1ccco1` [Example 291, N-{3-[3-cyano-6-(4-fluoro-2-hydroxyphenyl)-2-(2-furoylamino)pyridin-4-yl]phenyl}-D-prolinamide hydrochloride], for which the melting point lay in the range of 216 to 220 °C. The 50% inhibitory concentration (IC50) in data set [1] is no more than 10 µM.
`Cl.N#Cc1c(-c2cccc(NC(=O)CN3CCCC3)c2)cc(-c2ccc(F)cc2O)nc1NC(=O)c1ccco1` [Example 259, N-(3-cyano-6-(4-fluoro-2-hydroxyphenyl)-4-{3-[(pyrrolidin-1-ylacetyl)amino]phenyl}pyridin-2-yl)-2-furamide hydrochloride]: the melting point was in the range of 203 to 205 °C. Also, the half-inhibitory concentration (IC50) in data set [1] was no more than 10 µM.

(Values after US20090156646A1, “PYRIDYLPHENOL COMPOUND AND USE THEREOF” (TAKEDA PHARMACEUTICAL COMPANY LIMITED, priority 2005, published 2009).)
